Laboratory results taken from patent US12552753B2, “Methods and compositions for targeting Tregs using CCR8 inhibitors” (Nanjing Immunophage Biomedical Co., Ltd., priority 2020, dated 2026).
Like-named read-outs stand apart in the source and are kept apart here.

Biological target: CCR8 (Homo sapiens, UniProt P51685)
Assay: Tango assay (Tango-CCR8-Gal4-CHO-K1 cells, CCL1-stimulated, ONE-Glo luminescence)
[1] = Tango Assay IC50, Inhibition of CCR8 Tango cell in vitro

CCR8, sequence (P51685 whole entry, the tested form may be a part): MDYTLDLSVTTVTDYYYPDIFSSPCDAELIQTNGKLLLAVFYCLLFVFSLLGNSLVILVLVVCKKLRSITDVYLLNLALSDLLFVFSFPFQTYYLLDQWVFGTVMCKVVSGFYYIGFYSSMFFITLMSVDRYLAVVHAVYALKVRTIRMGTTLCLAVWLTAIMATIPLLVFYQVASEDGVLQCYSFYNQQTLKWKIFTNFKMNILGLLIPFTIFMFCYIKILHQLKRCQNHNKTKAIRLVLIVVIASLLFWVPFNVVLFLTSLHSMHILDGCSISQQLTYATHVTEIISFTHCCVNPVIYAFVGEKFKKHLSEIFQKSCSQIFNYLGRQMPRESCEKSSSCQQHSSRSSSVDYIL

Structure (SMILES)	IC50 [1]	IC50 (read-out: Tango Assay IC50, Inhibition of CCR8 Tango cell in vitro)
CCCN1CCN(c2c(F)cccc2NS(=O)(=O)c2ccc(NC(=O)c3ccccc3C)c3ccccc23)CC1 [Compound 92, N-(4-(N-(3-fluoro-2-(4-propylpiperazin-1-yl)phenyl)sulfamoyl)naphthalen-1-yl)-2-methylbenzamide]	> 10 µM	–
CCCN1CCN(c2ccc(F)c(NS(=O)(=O)c3ccc(NC(=O)c4ccccc4C)c4ccccc34)c2)CC1 [Compound 95, N-(4-(N-(2-fluoro-5-(4-propylpiperazin-1-yl)phenyl)sulfamoyl)naphthalen-1-yl)-2-methylbenzamide]	> 10 µM	–
Cc1ccccc1C(=O)Nc1ccc(S(=O)(=O)Nc2ccc3c(c2)C(=O)N(CCN(C)C)CCO3)c2ccccc12 [Compound 96, N-(4-(N-(4-(2-(dimethylamino)ethyl)-5-oxo-2,3,4,5-tetrahydrobenzo[f][1,4]oxazepin-7-yl)sulfamoyl)naphthalen-1-yl)-2-methylbenzamide]	–	> 10 µM
Cc1ccccc1C(=O)Nc1ccc(S(=O)(=O)Nc2ccc3c(c2)C(N(C)C(=O)CN(C)C)CCC3)c2ccccc12 (stereo not shown) [Compound 97, N-(4-(N-(8-(2-(dimethylamino)-N-methylacetamido)-5,6,7,8-tetrahydronaphthalen-2-yl)sulfamoyl)naphthalen-1-yl)-2-methylbenzamide]	> 10 µM	–
Cc1ccccc1C(=O)Nc1ccc(S(=O)(=O)Nc2ccc3c(c2)C(N(C)CCN(C)C)CCC3)c2ccccc12 (stereo not shown) [Compound 99, N-(4-(N-(8-((2-(dimethylamino)ethyl)(methyl)amino)-5,6,7,8-tetrahydronaphthalen-2-yl)sulfamoyl)naphthalen-1-yl)-2-methylbenzamide]	> 10 µM	–
CC(C)(C)OC(=O)N1CCC(NS(=O)(=O)c2ccc(-c3nc4ccccc4[nH]3)cc2)CC1 [Compound 102, tert-butyl 4-(4-(1H-benzo[d]imidazol-2-yl)phenylsulfonamido) piperidine-1-carboxylate]	> 10 µM	–
CN1CCN(C(=O)N2CCC(NS(=O)(=O)c3ccc(-c4nc5ccccc5[nH]4)cc3)CC2)CC1 [Compound 103, 4-(1H-benzo[d]imidazol-2-yl)-N-(1-(4-methylpiperazine-1-carbonyl)piperidin-4-yl)benzenesulfonamide]	0.31 µM	–

Results, then the molecule that gave them:

IC50 [1]	IC50 (read-out: Tango Assay IC50, Inhibition of CCR8 Tango cell in vitro)	Structure (SMILES)
> 10 µM	–	CCCN1CCN(c2cc(NS(=O)(=O)c3ccc(NC(=O)c4ccccc4C)c4ccccc34)ccc2C(=O)O)CC1 [Compound 91, 4-(4-(2-methylbenzamido)naph-thalene-1-sulfonamido)-2-(4-propylpiperazin-1-yl)benzoic acid]
> 10 µM	–	CCCN1CCN(c2ccc(C)c(NS(=O)(=O)c3ccc(NC(=O)c4ccccc4C)c4ccccc34)c2)CC1 [Compound 93, 2-methyl-N-(4-(N-(2-methyl-5-(4-propylpiperazin-1-yl)phenyl)sulfamoyl)naphthalen-1-yl)benzamide]
> 10 µM	–	Cc1ccccc1C(=O)Nc1ccc(S(=O)(=O)Nc2ccc3c(c2)C(N(C)C(=O)CN(C)C)CC3)c2ccccc12 (stereo not shown) [Compound 98, N-(4-(N-(3-(2-(dimethylamino)-N-methylacetamido)-2,3-dihydro-1H-inden-5-yl)sulfamoyl)naphthalen-1-yl)-2-methylbenzamide]
> 10 µM	–	CN1CCCN(C(=O)C23CC(NS(=O)(=O)c4ccc5ccccc5c4)(C2)C3)CC1 [Compound 100, N-(3-(4-methyl-1,4-diazepane-1-carbonyl)bicyclo[1.1.1]pentan-1-yl)naphthalene-2-sulfonamide]
0.258 µM	–	C[C@H](N)C(=O)N1CCC(NS(=O)(=O)c2ccc(-c3nc4ccccc4[nH]3)cc2)CC1 [Compound 104, (S)-N-(1-(2-aminopropanoyl)piperi-din-4-yl)-4-(1H-benzo[d]imidazol-2-yl)benzenesulfonamide]
1.14 µM	–	CCCC(=O)N1CCC(NS(=O)(=O)c2ccc(-c3nc4ccccc4[nH]3)cc2)CC1 [Compound 106, 4-(1H-benzo[d]imidazol-2-yl)-N-(1-butyrylpiperidin-4-yl)benzenesulfonamide]
